# Test results taken from US12304899B2, “Factor XI activation inhibitors” (Merck Sharp & Dohme LLC, priority 2019, dated 2025).
# Biological target: T1, Human coagulation factor (F)XI (Homo sapiens, UniProt P03951)
# T1 construct: purchased Haematologic Technologies Inc. (FXI); Enzyme Research Laboratories (FXIIa) HCXI-150 (FXI); HFXIIa (FXIIa)
# Assay: Inhibition of FXIIa mediated activation of FXI (activation of human Factor XI to XIa by human Factor α-XIIa)
# Format: biochemical
# Conditions: human FXI pre-incubated with compound 30 min at 22° C., activation by human FXIIa 60 min, z-GPR-AFC substrate fluorescence, 4 parameter logistic fit; read-out: Inhibition of FXIIa meditated activation of FXI
# Description: Inhibition of FXIIa Mediated Activation of FXI
# Activation of Human Factor XI to XIa by Human Factor α-XIIa
# The assay was performed in 50 mM HEPES, 150 mM NaCl, 5 mM CaCl2, 0.1% PEG-8000, pH 7.4 buffer in black, flat-bottom, polystyrene microplates (Corning, Cat #3573). Serial dilutions (10-point, 3.333-fold) of the test compounds delivered as 10 mM DMSO stocks were prepared in the Labcyte Echo-qualified PP 384 well microplates (Labcyte, Cat #P-05525). Human coagulation factor (F)XI (Haematologic Technologies Inc., Cat #HCXI-150, concentration 46 nM, 19.5 uL) was pre-incubated with 0.5 uL of the test compounds for 30 min at 22° C. The activation was initiated by addition of 10 uL of human coagulation factor (F)XIIa (Enzyme Research Laboratories, Cat #HFXIIa, concentration 30 nM) and the reaction proceeded for 60 min at 22° C., after which it was quenched by addition of a selective inhibitor of FXIIa (Compound 54 in International Patent Publication WO2018093695) concentration 600 uM in DMSO, 1 uL). 10 min after the quench, 29 uL of z-GPR-AFC substrate (Sigma, Cat #C0980-10 MG, concentration 200 uM) was added into each well and the detection reaction proceeded for 60 min at 22° C. Fluorescence at 405/510 nm was measured in end-point mode using an Envision plate-reader (Perkin Elmer). IDBS Activity Base XE (ABase) analysis using 4 parameter logistic fit was performed to determine Minimum, Maximum, EC50, and Slope Factor for each compound.
# T1 sequence (P03951 19-625): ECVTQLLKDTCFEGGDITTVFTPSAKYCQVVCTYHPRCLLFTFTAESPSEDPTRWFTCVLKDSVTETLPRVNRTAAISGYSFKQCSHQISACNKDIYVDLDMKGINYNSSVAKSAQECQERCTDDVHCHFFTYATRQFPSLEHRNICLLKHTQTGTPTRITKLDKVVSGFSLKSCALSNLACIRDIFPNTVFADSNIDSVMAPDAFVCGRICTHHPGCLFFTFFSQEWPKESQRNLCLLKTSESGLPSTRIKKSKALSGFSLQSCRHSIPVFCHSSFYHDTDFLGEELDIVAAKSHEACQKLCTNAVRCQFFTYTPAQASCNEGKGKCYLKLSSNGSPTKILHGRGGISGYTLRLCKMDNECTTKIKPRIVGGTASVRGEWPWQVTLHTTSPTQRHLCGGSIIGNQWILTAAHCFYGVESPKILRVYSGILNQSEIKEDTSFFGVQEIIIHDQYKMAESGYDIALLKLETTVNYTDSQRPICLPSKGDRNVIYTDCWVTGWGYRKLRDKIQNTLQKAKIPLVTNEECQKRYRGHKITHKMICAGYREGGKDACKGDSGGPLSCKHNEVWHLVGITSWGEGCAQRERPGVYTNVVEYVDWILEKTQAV
row,SMILES,EC50
1,"N#CC1(c2ccccc2)CCN(C(=O)c2cc(C(=O)N3CCCCC3)c3cc(OCc4nc5ccccc5s4)ccc3n2)CC1 [Example 49, 1-(6-(benzo[d]thiazol-2-yl-methoxy)-4-(piperidine-1-carbonyl)quinoline-2-carbonyl)-4-phenylpiperi-dine-4-carbonitrile]",15 nM
2,"N#CC1(c2ccccc2)CCN(C(=O)c2cc(C(=O)N3CCCCC3)c3cc(OCc4ccc([N+](=O)[O-])cc4)ccc3n2)CC1 [Example 37, 1-(6-((4-nitrobenzyl)oxy)-4-(piperidine-1-carbonyl)quin-oline-2-carbonyl)-4-phenyl-piperidine-4-carbonitrile]",48.2 nM
3,"O=C(c1cc(C(=O)N2CCCCC2)c2cc(OCc3nc4ccccc4s3)ccc2n1)N1CCC2(CC1)CC2(F)F [Example 62, (6-(benzo[d]thiazol-2-yl-methoxy)-2-(1,1-difluoro-6-azaspiro[2.5]octane-6-carbonyl)quinolin-4-yl)-(piperidin-1-yl)methanone]",19.1 nM
4,"N#CC1(c2ccccn2)CCN(C(=O)c2cc(C(=O)N3CCCCC3)c3cc(OCc4nc5ccccc5s4)ccc3n2)CC1 [Example 57, 1-(6-(benzo[d]thiazol-2-yl-methoxy)-4-(piperidine-1-carbonyl)quinoline-2-car-bonyl)-4-(pyridin-2-yl)-piperidine-4-carbonitrile]",21.8 nM
5,"CC(=O)NC1CC2(CCN(C(=O)c3cc(C(=O)N4CCCCC4)c4cc(OCc5nc6ccccc6s5)ccc4n3)CC2)C1 [Example 73, N-(7-(6-(benzo[d]thiazol-2-ylmethoxy)-4-(piperi-dine-1-carbonyl)quinoline-2-carbonyl)-7-azaspiro-[3.5]nonan-2-yl)acetamide]",38.5 nM
6,"CC1(O)CCN(C(=O)c2cc(C(=O)N3CCCCC3)c3cc(OCc4ccc5c(c4Cl)COC5=O)ccc3n2)C1 (racemic) [Example 4, rac-4-chloro-5-(((2-(3-hydroxy-3-methylpyrrolidine-1-carbonyl)-4-(piperidine-1-carbonyl)quinolin-6-yl)oxy)methyl)isobenzofuran-1(3H)-one]",9.6 nM
7,"N#CC1(c2ccccc2)CCN(C(=O)c2cc(C(=O)N3CCCCC3)c3cc(OCc4ccc(-c5nnco5)cc4)ccc3n2)CC1 [Example 34, 1-(6-((4-(1,3,4-oxadiazol-2-yl)benzyl)oxy)-4-(piperidine-1-carbonyl)quinoline-2-car-bonyl)-4-phenylpiperidine-4-carbonitrile]",41.4 nM
8,"N#CC1(c2ccccc2)CCN(C(=O)c2cc(C(=O)N3CCCCC3)c3cc(OCc4cccc(OC(F)F)c4)ccc3n2)CC1 [Example 33, 1-(6-((3-(difluoro-l3-meth-oxy)phenyl)methoxy)-4-(piperidine-1-carbonyl)quin-oline-2-carbonyl)-4-phenyl-piperidine-4-carbonitrile]",35.9 nM
9,"N#Cc1ccccc1COc1ccc2nc(C(=O)N3CCC(C#N)(c4ccccc4)CC3)cc(C(=O)N3CCCCC3)c2c1 [Example 30, 1-(6-((2-cyanobenzyl)oxy)-4-(piperidine-1-carbonyl)quin-oline-2-carbonyl)-4-phenyl-piperidine-4-carbonitrile]",30.1 nM
10,"N#CC1(c2ccccc2)CCN(C(=O)c2cc(C(=O)N3CCCCC3)c3cc(OCc4nc5ccccc5s4)ccc3n2)CC1 [Example 60, 1-(6-(benzo[d]thiazol-2-yl-methoxy)-4-(piperidine-1-carbonyl)quinoline-2-car-onyl)-4-phenylpiperidine-4-carbonitrile]",37.7 nM
11,"N#CC1(c2ccccc2)CCN(C(=O)c2cc(C(=O)N3CCCCC3)c3cc(OCc4ccc(F)cc4F)ccc3n2)CC1 [Example 43, 1-(6-((2,4-difluorobenzyl)-oxy)-4-(piperidine-1-carbon-yl)quinoline-2-carbonyl)-4-phenylpiperidine-4-carbonitrile]",38.5 nM

# Other lines, results leading:
row,EC50,SMILES
1,31.6 nM,"O=C1OCc2cc(COc3ccc4nc(C(=O)N5CCC(n6cccn6)CC5)cc(C(=O)N5CCCCC5)c4c3)ccc21 [Example 19, 5-(((2-(4-(1H-pyrazol-1-yl)-piperidine-1-carbonyl)-4-(piperidine-1-carbonyl)-quinolin-6-yl)oxy)methyl)-isobenzofuran-1(3H)-one]"
2,21.9 nM,"Cc1c(COc2ccc3nc(C(=O)N4CCC(n5cccn5)CC4)cc(C(=O)N4CCCCC4)c3c2)ccc2c1COC2=O [Example 18, 5-(((2-(4-(1H-pyrazol-1-yl)-piperidine-1-carbonyl)-4-(piperidine-1-carbonyl)-quinolin-6-yl)oxy)methyl)-4-methylisobenzofuran-1(3H)-one]"
3,131 nM,"C[C@]1(O)CCN(C(=O)c2cc(C(=O)N3CCCCC3)c3cc(OCc4nc5ccccc5s4)ccc3n2)C1 [Example 61, (S)(6-(benzo[d]thiazol-2-ylmethoxy)-2-(3-hydroxy-3-methylpyrrolidine-1-carbonyl)quinolin-4-yl)-(piperidin-1-yl)methanone]"
4,28.9 nM,"Cn1c(COc2ccc3nc(C(=O)N4CCC(n5cccn5)CC4)cc(C(=O)N4CCCCC4)c3c2)nc2ccccc21 [Example 24, (4-(1H-pyrazol-1-yl)piperidin-1-yl)(6-((1-methyl-1H-benzo-[d]imidazol-2-yl)methoxy)-4-(piperidine-1-carbonyl)-quinolin-2-yl)methanone]"
5,21.8 nM,"Cc1c(COc2ccc3nc(C(=O)N4CCC(C#N)(n5cccn5)CC4)cc(C(=O)N4CCCCC4)c3c2)ccc2c1COC2=O [Example 1, 1-(6-((4-methyl-1-oxo-1,3-dihydroisobenzofuran-5-yl)methoxy)-4-(piperidine-1-carbonyl)quinoline-2-carbonyl)-4-(1H-pyrazol-1-yl)piperidine-4-carbonitrile]"
6,21.8 nM,"O=C(c1cc(C(=O)N2CCCCC2)c2cc(OCc3ccc(C(F)(F)F)nc3)ccc2n1)N1CCC(n2cccn2)CC1 [Example 10, (4-(1H-pyrazol-1-yl)piperidin-1-yl)(4-(piperidine-1-carbon-yl)-6-((6-(trifluoromethyl)-pyridin-3-yl)methoxy)-quinolin-2-yl)methanone]"
7,33.7 nM,"N#CC1(n2cccn2)CCN(C(=O)c2cc(C(=O)N3CCCCC3)c3cc(OCc4nc5ccccc5s4)ccc3n2)CC1 [Example 58, 1-(6-(benzo[d]thiazol-2-ylmethoxy)-4-(piperidine-1-carbonyl)quinoline-2-carbonyl)-4-(1H-pyrazol-1-yl)piperidine-4-carbonitrile]"
8,39.6 nM,"N#Cc1ccc(COc2ccc3nc(C(=O)N4CCC(n5cccn5)CC4)cc(C(=O)N4CCCCC4)c3c2)cc1 [Example 9, 4-(((2-(4-(1H-pyrazol-1-yl)-piperidine-1-carbonyl)-4-(piperidine-1-carbonyl)-quinolin-6-yl)oxy)methyl) benzonitrile]"
9,18.8 nM,"O=C(c1cc(C(=O)N2CCCCC2)c2cc(OCc3nc4ccccc4s3)c(F)cc2n1)N1CCC(n2cccn2)CC1 [Example 75, (4-(1H-pyrazol-1-yl)piperidin-1-yl)(6-(benzo[d]thiazol-2-ylmethoxy)-7-fluoro-4-(piperidine-1-carbonyl)quinolin-2-yl)methanone]"
10,31.8 nM,"COc1ccc(COc2ccc3nc(C(=O)N4CCC(C#N)(c5ccccc5)CC4)cc(C(=O)N4CCCCC4)c3c2)cc1F [Example 39, 1-(6-((3-fluoro-4-methoxy-benzyl)oxy)-4-(piperidine-1-carbonyl)quinoline-2-carbon-yl)-4-phenylpiperidine-4-carbonitrile]"
11,23.7 nM,"Cn1nnc2cc(COc3ccc4nc(C(=O)N5CCC(n6cccn6)CC5)cc(C(=O)N5CCCCC5)c4c3)ccc21 [Example 15, (4-(1H-pyrazol-1-yl)piperidin-1-yl)(6-((1-methyl-1H-benzo-[d][1,2,3]triazol-5-yl)methoxy)-4-(piperidine-1-carbonyl)-quinolin-2-yl)methanone]"
12,33.1 nM,"Cn1c(COc2ccc3nc(C(=O)N4CCC(C#N)(c5ccccc5)CC4)cc(C(=O)N4CCCCC4)c3c2)nc2ccccc21 [Example 50, 1-(6-((1-methyl-1H-benzo[d]-imidazol-2-yl)methoxy)-4-(piperidine-1-carbonyl)quin-oline-2-carbonyl)-4-phenyl-piperidine-4-carbonitrile]"
13,30.5 nM,"COc1cccc(COc2ccc3nc(C(=O)N4CCC(C#N)(c5ccccc5)CC4)cc(C(=O)N4CCCCC4)c3c2)c1 [Example 41, 1-(6-((3-methoxybenzyl)oxy)-4-(piperidine-1-carbonyl)quin-oline-2-carbonyl)-4-phenyl-piperidine-4-carbonitrile]"
